Measured values as given in article PMC11620517, “Novel hydrazone compounds with broad-spectrum antiplasmodial activity and synergistic interactions with antimalarial drugs” (Antimicrobial Agents and Chemotherapy, 2024).
Like-named read-outs stand apart in the source and are kept apart here.

What was measured:
[1] = test system: P. cynomolgi hypnozoites and hepatic schizonts; assay: P. cynomolgi liver-stage inhibition assay; type: cell-based, Plasmodium cynomolgi; settings: for IC50: Plasmodium cynomolgi
Protocol: Primary primate hepatocytes were seeded in 384-well plates and used within 2–4 days ([56]). P. cynomolgi B strain parasites were inoculated and developed into hypnozoites and schizonts. CB compounds were tested in 8-point, threefold serial dilutions (100 µM to […]) for both prophylactic (4 days starting with sporozoite addition) and radical cure (4 days starting day 4 post-inoculation) modalities ([56][–][60]). The Operetta CLS imaging system and Harmony Software 4.9 (Perkin Elmer, Waltham, MA, USA) analyzed the plates, and the percentage of inhibition (PI) was calculated in Python using equation (1), where parasitic quantities (hypnozoite and schizont counts) were normalized to the negative control ([57]). Each plate included negative (DMSO) and positive (KDU691, maduramicin, tafenoquine) controls ([58]). IC50 values were determined using an 8-point, threefold dilution format and a Python-adapted grid algorithm for fitting PI to a four-parameter logistic function ([61]).
PI = 100 ∗(1−(xy/Meanneg))

[2] = test system: recombinant P. berghei GST; assay: GST inhibition assay (CDNB); type: biochemical, Plasmodium berghei; settings: 6-point 1–50 µM
Protocol: (§1) Enzymatic activities of recombinant GSTs were determined spectrophotometrically using the chromogenic substrate 1-chloro-2,4-dinitrobenzene (CDNB). Recombinant GST (0.35 mg/mL) was mixed with 1 mM CDNB in 100 mM HEPES. Stock solutions (10 mM) of the CB compounds and hemin were prepared in 100% dimethyl sulfoxide (DMSO) and then diluted at 0.5% DMSO ([14]). Each inhibitor has six concentrations ranging from 1 to 50 µM. The reaction was initiated with 1 mM glutathione (GSH) after 15 minutes. Absorbance change at 340 nm was measured for 1 hour. The slope was converted to micromole per minute using Beer’s equation and the extinction coefficient for the product S-(2,4-dinitrophenyl)glutathione (ε340 nm = 9.6 mM^–1 cm^–1) ([14]). The assay was validated using human placenta GST (#G8642) as a positive control.

human GST = target: T1, human GST (Homo sapiens, UniProt P08263); assay: GST inhibition assay (CDNB); type: biochemical; settings: 6-point 1–50 µM
T1 construct: The open reading frames encoding PfGST, PbGST, and hGST were gene-synthesized; TEV cleavage site (C); Avitag (C); purchased InterRayBio, LLC; host or cells: E. coli BL21 (DE3)
T1 sequence (P08263 1-222): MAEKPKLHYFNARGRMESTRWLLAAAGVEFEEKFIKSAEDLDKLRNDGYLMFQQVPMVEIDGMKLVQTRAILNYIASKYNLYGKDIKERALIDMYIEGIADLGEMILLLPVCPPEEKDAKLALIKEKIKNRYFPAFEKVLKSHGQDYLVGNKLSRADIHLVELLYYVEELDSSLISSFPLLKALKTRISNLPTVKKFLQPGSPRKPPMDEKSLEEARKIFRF
Protocol: as §1

[3] = target: T2, recombinant P. falciparum GST (Plasmodium falciparum, UniProt Q8ILQ7); assay: GST inhibition assay (CDNB); type: biochemical; settings: 6-point 1–50 µM
T2 construct: The open reading frames encoding PfGST, PbGST, and hGST were gene-synthesized; TEV cleavage site (C); Avitag (C); purchased InterRayBio, LLC; host or cells: E. coli BL21 (DE3)
T2 sequence (Q8ILQ7 1-211): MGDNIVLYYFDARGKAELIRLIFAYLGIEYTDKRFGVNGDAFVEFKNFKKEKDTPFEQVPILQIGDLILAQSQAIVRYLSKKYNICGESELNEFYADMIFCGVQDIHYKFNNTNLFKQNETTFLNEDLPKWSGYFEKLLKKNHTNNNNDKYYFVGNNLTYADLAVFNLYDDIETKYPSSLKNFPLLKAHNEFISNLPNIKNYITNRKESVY
Protocol: as §1

[4] = test system: P. berghei blood-stage parasites; assay: P. berghei blood-stage isobolograms; type: cell-based, Plasmodium berghei
Protocol: Antimalarial activity and IC50 values of CB-61 and five antimalarial drugs were assessed using the previously described in vitro drug luminescence assay ([14], [68]). Blood-stage isobolograms were performed to confirm synergistic combinations between CB-61 and the five drugs, following established protocols ([69]). Thirty-two-fold IC50 concentrations were used to obtain six concentration ranges for each drug combination, and then they were serially diluted five times ([67]). IC50 scores for each drug alone were determined, and FIC50 values (FIC50 = […]) were calculated and plotted ([70], [71]). The Promega Luciferase Assay System Kit was used to measure mature schizonts’ RLUs, and Giemsa blood smears confirmed the presence of schizonts ([14]).

[5] = prophylactic drug treatment mode, read-out: Hypnozoite IC50
[6] = prophylactic drug treatment mode, read-out: Schizont IC50
[7] = prophylactic drug treatment mode, read-out: Total parasite IC50

SMILES	IC50 [1, 5] [µM]	IC50 [1, 6] [µM]	IC50 [1, 7] [µM]	antiplasmodial activity on liver stages ([1]; radical cure mode)	GST inhibition [2]	GST inhibition (human GST)	GST inhibition [3]	IC50 ([1]; read-out: Hypnozoite IC50) [µM]	IC50 ([1]; read-out: Schizont IC50) [µM]	IC50 ([1]; read-out: Total parasite IC50) [µM]	Mean ΣFIC50 ([4]; combination with ATQ)	Mean ΣFIC50 ([4]; combination with CLIND)	Mean ΣFIC50 ([4]; combination with CQ (negative control))	Mean ΣFIC50 ([4]; combination with DHA)	Mean ΣFIC50 ([4]; combination with HALO)	Mean ΣFIC50 ([4]; combination with LUM)
COc1cccc(/C=N/NC(=O)c2nc(-c3ccccc3)cc(-c3ccccc3)n2)c1O [CB-41]	8.7	8.4	8.6	did not show antiplasmodial activity	did not inhibit	did not inhibit	did not inhibit	–	–	–	–	–	–	–	–	–
O=C(N/N=C/c1cc(Br)ccc1O)/C(=C/C=C/c1ccccc1)NC(=O)c1ccccc1 [CB-50]	> 10	> 10	> 10	–	did not inhibit	did not inhibit	did not inhibit	–	–	–	–	–	–	–	–	–
O=C(NN=Cc1ccccc1O)c1cc(-c2ccccc2)nc2ccccc12 [CB-53]	> 10	> 10	> 10	–	did not inhibit	did not inhibit	did not inhibit	–	–	–	–	–	–	–	–	–
COc1cccc(/C=N/NC(=O)c2cc(-c3ccccc3)nc3ccccc23)c1O [CB-58]	> 10	> 10	> 10	–	did not inhibit	did not inhibit	did not inhibit	–	–	–	–	–	–	–	–	–
O=C(N/N=C/c1c(O)ccc2ccccc12)c1cc([N+](=O)[O-])cc([N+](=O)[O-])c1 [CB-61]	–	–	–	–	did not inhibit	did not inhibit	did not inhibit	> 10	> 10	> 10	1.13	0.82	1.15	1.44	0.78	1.20
